{"source": "patent US20120213855A1", "about": "“DOSAGE FORMS FOR WEAKLY IONIZABLE COMPOUNDS” (CIMA LABS INC., priority 2011, published 2012)", "key": {"[1]": {"experiment": "In vitro dissolution in 900 mL DI water, USP type 2 apparatus (Example 3)", "format": "physicochemical", "conditions": "37° C., 50 rpm, 15 mg meloxicam, when introduced to the dissolution medium", "experimental": "Dissolution was performed in 900 mL of DI water. Dissolution studies were conducted in a USP type 2 apparatus (Varian Inc., Cary, N.C.). Paddle speed and bath temperature were set to 50 rpm and 37° C., respectively. Samples (5 mL) were withdrawn at 5, 10, 15, 30, 45, and 60 minutes and analyzed by UV spectroscopic methods at 360 nm (Varian Cary, Australia). Dissolution experiment was performed in duplicates unless otherwise specified."}, "[2]": {"experiment": "In vivo human study, pharmacokinetics in healthy volunteers (Example 7)", "quoted_text": "The study consisted of a total of eighteen healthy adult volunteers (male and female). Testing was conducted over three phases, with a minimum fourteen day washout period between each phase of the study. Test formulation A and C were randomly dosed during phases 1 and 2, while test formulation B was dosed entirely during phase 3. […] Each formulation was administered as a single dose, with approximately 240 mL of room temperature water.\nTwenty-seven blood samples per subject per phase were collected at various time points over the course of 96 hours following dosing. Pharmacokinetic sampling occurred within 90 minutes prior to dosing (0 hour) and after dose administration at 0.5, 1, 1.5, 2, 2.5, 3, 3.5, 4, 4.5, 5, 5.5, 6, 6.5, 7, 7.5, 8, 8.5, 9, 9.5, 10, 12, 16, 24, 48, 72, and 96 hours. The samples were stored at room temperature for about 1 hour or until being processed for serum. The samples were centrifuged at 3000 RPM for 10 minutes at 4° C. (±10° C.). Serum samples were stored at −20±10° C. until analyzed.\nThe samples were evaluated using a validated bioanalytical method and according to the Bioanalytical Laboratory's Standard Operating Procedures and FDA guidelines."}, "[3]": {"experiment": "In vivo dog study, serum pharmacokinetics by LC/MS/MS (Example 4)", "quoted_text": "Both formulations were administered orally.\nFor each formulation 4 or 5 dogs were studied. Prior to administration, the animals were fasted overnight and approximately 2 hours post-dose, the animals had access to regular rations for the remaining portion of the study. The animals were dosed multiple times over the course of the study with at least a two-week recovery period between dosing phases. Each formulation was administered as a single dose, with the intravenous dosages occurring in the cephalic vein.\nBlood samples were collected from the cephalic or saphenous veins. The samples were stored at room temperature for about 1 hour or until being processed for serum. The samples were centrifuged at 3200 RPM for 10 minutes at 22-26° C. Serum samples were stored at 4±5° C. until analyzed.\nThe samples were evaluated using LC/MS/MS."}}, "data": [{"smiles": "Cc1cnc(NC(=O)C2=C(O)c3ccccc3S(=O)(=O)N2C)s1", "note": "[Meloxicam, 4-hydroxy-2-methyl-N-(5-methyl-2-thiazolyl)-2H-1,2-benzothiazine-3-carboxamide-1,1-dioxide]", "values": [{"measurement": "meloxicam dissolved in water", "setting": "[1]", "result": 12, "unit": "%"}, {"measurement": "elimination phase", "setting": "[2]", "result": "slow elimination phase"}, {"measurement": "elimination phase", "setting": "[3]", "result": "slow elimination phase"}]}]}
